Measurements as given in the supplement of paper PMC4862054.

Key:
Details in all cases: incubation time: 72 h
CAL-148 [1] = assay: normalised response (% of control), CellTiter-Glo; higher = more viable cells (100 = DMSO, 0 = benzethonium chloride kill control)
Procedure, shortened: (§1)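 Two readouts were taken after 72 h: CellTox Green fluorescence (485/520 nm) first, then CellTiter-Glo luminescence after 10 min at room temperature. Breast cancer cell lines had been seeded as 20 µl suspension into 384-well plates holding compound at 5 concentrations in 10-fold steps across a compound-specific 10,000-fold range. Each value is a normalised signal at a single concentration, with plates scaled to 0.1 % DMSO (100) and a positive kill control (0).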

MFM-223 [2] = assay: as above
Procedure, shortened: as §1

Hs578T [3] = assay: as above
Procedure, shortened: as §1

HCC1937 [4] = assay: as above
Procedure, shortened: as §1

CAL-120 [5] = assay: as above
Procedure, shortened: as §1

MDA-MB-436 [6] = assay: as above
Procedure, shortened: as §1

CAL-85-1 [7] = assay: as above
Procedure, shortened: as §1

CAL-51 [8] = assay: as above
Procedure, shortened: as §1

HCC1599 [9] = assay: as above
Procedure, shortened: as §1

BT-549 [10] = assay: as above
Procedure, shortened: as §1

BT-474 [11] = assay: as above
Procedure, shortened: as §1

MDA-MB-468 [12] = assay: as above
Procedure, shortened: as §1

DU-4475 [13] = assay: as above
Procedure, shortened: as §1

MCF-10A [14] = assay: as above
Procedure, shortened: as §1

MDA-MB-453 [15] = assay: as above
Procedure, shortened: as §1

MDA-MB-231 [16] = assay: as above
Procedure, shortened: as §1

HCC1143 [17] = assay: as above
Procedure, shortened: as §1

HDQ-P1 [18] = assay: as above
Procedure, shortened: as §1

SK-BR-3 = assay: as above
Procedure, shortened: as §1

CAL-148 [19] = assay: normalised response (% of control), CellTox Green; higher = less cell death (100 = DMSO, 0 = benzethonium chloride kill control)
Procedure, shortened: as §1

MFM-223 [20] = assay: as above
Procedure, shortened: as §1

Hs578T [21] = assay: as above
Procedure, shortened: as §1

HCC1937 [22] = assay: as above
Procedure, shortened: as §1

CAL-120 [23] = assay: as above
Procedure, shortened: as §1

MDA-MB-436 [24] = assay: as above
Procedure, shortened: as §1

CAL-85-1 [25] = assay: as above
Procedure, shortened: as §1

CAL-51 [26] = assay: as above
Procedure, shortened: as §1

HCC1599 [27] = assay: as above
Procedure, shortened: as §1

BT-549 [28] = assay: as above
Procedure, shortened: as §1

BT-474 [29] = assay: as above
Procedure, shortened: as §1

MDA-MB-468 [30] = assay: as above
Procedure, shortened: as §1

DU-4475 [31] = assay: as above
Procedure, shortened: as §1

MCF-10A [32] = assay: as above
Procedure, shortened: as §1

MDA-MB-453 [33] = assay: as above
Procedure, shortened: as §1

MDA-MB-231 [34] = assay: as above
Procedure, shortened: as §1

HCC1143 [35] = assay: as above
Procedure, shortened: as §1

HDQ-P1 [36] = assay: as above
Procedure, shortened: as §1

SMILES	normalised response (CAL-148 [1]) [%]	normalised response (MFM-223 [2]) [%]	normalised response (Hs578T [3]) [%]	normalised response (HCC1937 [4]) [%]	normalised response (CAL-120 [5]) [%]	normalised response (MDA-MB-436 [6]) [%]	normalised response (CAL-85-1 [7]) [%]	normalised response (CAL-51 [8]) [%]	normalised response (HCC1599 [9]) [%]	normalised response (BT-549 [10]) [%]	normalised response (BT-474 [11]) [%]	normalised response (MDA-MB-468 [12]) [%]	normalised response (DU-4475 [13]) [%]	normalised response (MCF-10A [14]) [%]	normalised response (MDA-MB-453 [15]) [%]	normalised response (MDA-MB-231 [16]) [%]	normalised response (HCC1143 [17]) [%]	normalised response (HDQ-P1 [18]) [%]	normalised response (SK-BR-3) [%]	normalised response (CAL-148 [19]) [%]	normalised response (MFM-223 [20]) [%]	normalised response (Hs578T [21]) [%]	normalised response (HCC1937 [22]) [%]	normalised response (CAL-120 [23]) [%]	normalised response (MDA-MB-436 [24]) [%]	normalised response (CAL-85-1 [25]) [%]	normalised response (CAL-51 [26]) [%]	normalised response (HCC1599 [27]) [%]	normalised response (BT-549 [28]) [%]	normalised response (BT-474 [29]) [%]	normalised response (MDA-MB-468 [30]) [%]	normalised response (DU-4475 [31]) [%]	normalised response (MCF-10A [32]) [%]	normalised response (MDA-MB-453 [33]) [%]	normalised response (MDA-MB-231 [34]) [%]	normalised response (HCC1143 [35]) [%]	normalised response (HDQ-P1 [36]) [%]
CO[C@H]1C[C@@H]2CC[C@@H](C)[C@@](O)(O2)C(=O)C(=O)N2CCCC[C@H]2C(=O)O[C@H]([C@H](C)C[C@@H]2CC[C@@H](OCCO)[C@H](OC)C2)CC(=O)[C@H](C)/C=C(\C)[C@@H](O)[C@@H](OC)C(=O)[C@H](C)C[C@H](C)/C=C/C=C/C=C/1C [Everolimus] (1 nM)	72	71.6	70.6	75.2	77.8	83.7	69.3	72.1	98.2	63.6	91.9	57.1	83	91.6	82.7	82.9	72.4	91.9	65.9	85.8	102	67.1	99.9	106	98.3	109	94.4	89.6	79.8	96.7	121	96.3	80	103	105	79.1	83.1
CC[C@]1(O)C[C@H]2CN(CCc3c([nH]c4ccccc34)[C@@](C(=O)OC)(c3cc4c(cc3OC)N(C=O)[C@H]3[C@@](O)(C(=O)OC)[C@H](OC(C)=O)[C@]5(CC)C=CCN6CC[C@]43[C@@H]65)C2)C1 [Vincristine] (10 nM)	64.6	90.8	82.6	75.7	66.8	70.8	30.6	86.8	63.5	38.2	71	20.9	86.3	60.5	70.6	76.7	53.5	71	17.8	71.5	94.7	88.5	93.3	93.9	56	45	73.2	90.7	77.1	76.7	-5.1	98.7	51.6	87.5	53.4	98.8	44.8
COc1ccc(-c2ccc3c(N4CCOC[C@@H]4C)nc(N4CCOC[C@@H]4C)nc3n2)cc1CO [AZD8055] (100 nM)	49.5	36.9	49.7	66.9	41.5	51.5	41.1	35.7	93	40.2	72	47.3	80.1	50.4	42.1	62.3	45.1	51.3	27.5	79.2	67	93.9	97.7	98.2	97.7	104	82.3	87.7	103	96.5	13.6	94.9	84.6	85.5	94.6	80.1	109
CCCCCCCCc1ccc(CCC(N)(CO)CO)cc1 [Fingolimod] (100 nM)	101	106	97.4	96	97	100	105	92.5	107	95.8	99.9	107	99.7	105	97.4	100	100	103	107	87.9	103	110	115	104	97.3	102	109	111	88.7	101	122	100	95.9	109	78.8	103	91.7
